Reference: patent US12410157B2, “Compound useful as toll-like receptor 7 activation inhibitor” (TOYAMA PREFECTURAL UNIVERSITY, priority 2020, dated 2025)
Where a name gives a salt, the structure may show the parent alone. Read-outs that look alike come from different tables or passages of the source.

Assays:
[1] = biological target: T1, mouse TLR7 (Mus musculus, UniProt P58681); assay: Inhibition of TLR7 activation in mouse TLR7-expressing NF-κB-GFP reporter Ba/F3 cells; type: cell-based; details: for TLR7 activation inhibitory activity, comparison in words: from IC50 of Table 3 / Table 5
T1 construct: expressed in transfected cells; host or cells: Ba/F3 cells (provided by Prof. Kensuke Miyake, University of Tokyo)
T1 sequence (P58681 27-1050): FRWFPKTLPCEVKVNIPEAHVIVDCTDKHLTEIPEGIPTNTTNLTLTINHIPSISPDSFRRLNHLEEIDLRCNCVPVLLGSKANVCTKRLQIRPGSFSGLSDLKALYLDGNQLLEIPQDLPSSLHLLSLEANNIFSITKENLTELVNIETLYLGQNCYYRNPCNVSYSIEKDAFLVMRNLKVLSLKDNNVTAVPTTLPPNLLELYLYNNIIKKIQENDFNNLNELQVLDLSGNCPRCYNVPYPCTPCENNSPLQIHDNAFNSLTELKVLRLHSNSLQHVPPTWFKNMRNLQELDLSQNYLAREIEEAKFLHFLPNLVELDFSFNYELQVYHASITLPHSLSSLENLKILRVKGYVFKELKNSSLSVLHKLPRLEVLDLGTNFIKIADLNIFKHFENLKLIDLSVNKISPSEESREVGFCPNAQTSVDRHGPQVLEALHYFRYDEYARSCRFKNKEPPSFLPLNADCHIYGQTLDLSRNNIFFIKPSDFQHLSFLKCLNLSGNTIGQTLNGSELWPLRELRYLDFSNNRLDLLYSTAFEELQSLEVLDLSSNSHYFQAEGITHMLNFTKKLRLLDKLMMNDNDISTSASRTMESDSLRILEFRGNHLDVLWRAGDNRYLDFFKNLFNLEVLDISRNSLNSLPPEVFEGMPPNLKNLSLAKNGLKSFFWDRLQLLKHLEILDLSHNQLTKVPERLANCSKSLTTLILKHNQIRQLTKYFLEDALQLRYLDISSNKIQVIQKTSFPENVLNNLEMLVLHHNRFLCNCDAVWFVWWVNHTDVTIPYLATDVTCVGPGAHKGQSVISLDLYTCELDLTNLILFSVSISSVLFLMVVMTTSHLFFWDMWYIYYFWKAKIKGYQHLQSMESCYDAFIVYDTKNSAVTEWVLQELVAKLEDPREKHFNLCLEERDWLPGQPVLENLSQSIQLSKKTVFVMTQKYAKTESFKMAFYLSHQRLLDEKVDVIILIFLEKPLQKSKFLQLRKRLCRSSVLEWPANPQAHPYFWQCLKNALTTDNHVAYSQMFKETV
Description: Mouse TLR7-expressing reporter cells (Ba/F3 cells) were used to evaluate inhibition of TLR7 activation in each derivative and CB-7. These cells were provided by Professor Kensuke Miyake (Department of Infection Genetics, Institute of Medical Science, University of Tokyo). These cells have been transfected with a reporter gene that connects GFP gene downstream of the promoter region of NF-κB. Therefore, the expression of GFP is enhanced by the addition of a ligand for TLR7 expressed by the cells. The fluorescence intensity of GFP was attenuated by the addition of each derivative, and the inhibition of TLR7 activation by each derivative was evaluated as an indicator.
Loxoribine (Alexis Biochemicals) was used as the ligand for mouse TLR7. Gardiquimod (Invivogen) was used as the ligand for human TLR7.
Ba/F3 cells cultured in RPMI 1640 medium containing 10% (v/v) fetal calf serum (FCS), 50 U/mL penicillin, 50 μg/mL streptomycin, 2 mM L-glutamine, […] 2-mercaptoethanol, 1 ng/mL interleukin-3 were aliquoted into 96-well plates so that the number of cells per well was 1.0×10^5 cells/100 μL. 50 μL of each derivative or CB-7, prepared to final concentrations of 1, 5, 10, 25, 50, and 100 µM, was added to each well. 96-well plates were incubated at 37° C. for 30 minutes in the presence of 5% CO2. Next, 250 μg/mL Roxoribin was added to each well and incubated for 18 hours. At the end of incubation, cells were washed with PBS (FACS buffer) containing 2.5% (v/v) FCS and suspended in 200 μL of FACS buffer containing 25 μg/mL […] for each cell. GFP fluorescence intensities of the cells were analyzed by flow cytometry. Flow cytometry measurement was performed on a FACSCanto™ II (Becton Dickinson) and data were analyzed with FlowJo software (Tree Star). The MFI (%) upon stimulation with roxoribin in the presence of […] derivatives or CB-7 was calculated using the MFI upon stimulation with roxoribin alone as 100%, and then IC50 (chemical compound concentration that inhibits activity by 50%) was calculated by logistic regression analysis.
The evaluation of the TLR7 activation inhibition by B2-24-4-5A·HCOOH was performed by the method described in Example 2. CB-7 and B2-24-4·HCl were used as controls.

[2] = system: Cytochrome P450 (CYP), mouse liver microsomes; assay: Metabolic stability (CYP) using mouse liver microsomes, HPLC; type: in vitro ADME; details: for Number of peaks detected by HPLC: 0.1 mg/mL, 37° C., 30 minutes or 2 hours; for Drug metabolism mainly by CYPs compared to CB-7: words
Procedure: For CB-7, B2-24, and B2-5A, 10 mg/mL DMSO solution was used. Each chemical compound was diluted with acetonitrile to 0.1 mg/mL, which was used as the analytical standard. Mouse liver microsomal fractions were rapidly thawed in a warm bath at 37° C. and kept on ice. Reaction buffer containing CYP cofactor was prepared on ice and mixed with the microsomal fractions. The reaction solution was preincubated at 37° C. for 5 minutes, and then the test substance solution was added and mixed well by pipetting. The volume of the reaction solution was 200 μL and the final concentration of the test substance was 0.1 mg/mL. The reaction solution was incubated at 37° C. for 30 minutes or 2 hours, and the reaction was stopped by adding 3 times the volume of acetonitrile and vortexing. After the reaction was stopped, the samples were centrifuged, and each supernatant was separated and dried in an evaporator. 50 μL of 50% acetonitrile solution was added to each solidified sample, and each sample was re-dissolved by vortexing for 5 minutes. Each redissolved solution was centrifuged, and each supernatant was subjected to HPLC analysis using a HITACHI Lachrom ELITE (HITACHI) as a HPLC system and COSMOSIL 5C18-MS-II, 4.6 mmI.D.×150 mm (nacalai tesque Co.) as a column.
Metabolic stability analysis of CB-7 and B2-24-4-5A·HCOOH was performed by the method of Example 5.

[3] = Example 2, Ba/F3 reporter cells, loxoribine stimulation 18 hours, GFP MFI, read-out: IC50 of CB-7 derivatives with modified Areas a and b

Structure (SMILES) | IC50 [1, 3] | TLR7 activation inhibitory activity, comparison in words [1] | other results
C=C(C)[C@@H]1CCC(O)(CN(C)C)C[C@H]1c1ccc(OC)cc1 (stereo partly shown) [B2-2A] | > 100000 nM | – | –
C=C(C)[C@@H]1CCC(O)(CNS(C)(=O)=O)C[C@H]1c1ccc(OC)cc1 (stereo partly shown) [B2-3A] | > 10000 nM | – | –
C=C(C)[C@@H]1CC[C@]2(COC(=O)C2)C[C@H]1c1ccc2ccccc2c1 [B2-5A-1] | > 100000 nM | – | –
C=C(C)[C@@H]1CC[C@]2(COC(=O)C2)C[C@H]1c1ccc(COCCOC)cc1 [B2-5A-4] | 2570 nM | higher TLR7 activation inhibitory activity than CB-7 | –
C=C(C)[C@@H]1CC[C@]2(COC(=O)C2)C[C@H]1c1ccc(CN(CC)CC)cc1 [B2-5A-6] | 210 nM | higher TLR7 activation inhibitory activity than CB-7 | –
C=C(C)[C@@H]1CC[C@](CC(=O)O)(C(=O)OC)C[C@H]1c1ccc(OCCCO)cc1 [B2-5A-7-1] | > 10000 nM | – | –
C=C(C)[C@@H]1CC[C@]2(COC(=O)C2)C[C@H]1c1ccc(OCCCO)cc1 [B2-5A-7] | 2500 nM | higher TLR7 activation inhibitory activity than CB-7 | –
C=C(C)[C@@H]1CC[C@]2(COC(=O)C2)C[C@H]1c1ccc(CN2CCCC2)cc1 [B2-5A-9] | 300 nM | higher TLR7 activation inhibitory activity than CB-7 | –
C=C(C)[C@@H]1CC[C@]2(COC(=O)C2)C[C@H]1c1ccc(OC)cc1 [B2-5A] | 2430 nM | higher TLR7 activation inhibitory activity than CB-7 | Predicted metabolic modifications (CYP) ([2]; Example 3): +O; Number of peaks detected by HPLC ([2]; Example 3): 4; Drug metabolism mainly by CYPs compared to CB-7 [2]: improved drug metabolism mainly by CYPs compared to CB-7
C=C(C)[C@@H]1CC[C@@](COC)(CC(=O)O)C[C@H]1c1ccc(OC)cc1 [B2-5B] | > 100000 nM | – | –
C=C(C)[C@@H]1CC[C@@](CO)(CC(=O)N2CCOCC2)C[C@H]1c1ccc(OC)cc1 [B2-6-7] | 9360 nM | – | –
C=C(C)[C@@H]1CC[C@@](CO)(CCN(C)C)C[C@H]1c1ccc(OC)cc1 [B2-6A] | > 100000 nM | – | –
C=C(C)[C@@H]1CC[C@@](CO)(CC(=O)N(C)C)C[C@H]1c1ccc(OC)cc1 [B2-6] | > 100000 nM | – | –
C=C[C@]1(CO)CC[C@@H](C(=C)C)[C@H](c2ccc(COCCOC)cc2)C1 [B2-13] | 910 nM | higher TLR7 activation inhibitory activity than CB-7 | –
C=C[C@]1(CO)CC[C@@H](C(=C)C)[C@H](c2ccc(-c3ccccc3)cc2)C1 [B2-18] | > 50000 nM | – | –
C=C[C@]1(CO)CC[C@@H](C(=C)C)[C@H](c2ccc3ccccc3c2)C1 [B2-19] | > 100000 nM | – | –
C=C[C@]1(CO)CC[C@@H](C(=C)C)[C@H](c2ccc(Oc3ccccc3)cc2)C1 [B2-21] | > 50000 nM | – | –
C=C[C@]1(CC)CC[C@@H](C(=C)C)[C@H](c2ccc(CN(CC)CC)cc2)C1 [B2-22] | 310 nM | higher TLR7 activation inhibitory activity than CB-7 | –
C=C[C@]1(CO)CC[C@@H](C(=C)C)[C@H](c2ccc(-c3ccc(OC)cc3)cc2)C1 [B2-23] | > 100000 nM | – | –
C=C[C@]1(CO)CC[C@@H](C(=C)C)[C@H](c2ccc(CN3CCC(F)(F)CC3)cc2)C1 [B2-24-1] | 1050 nM | higher TLR7 activation inhibitory activity than CB-7 | –
C=C[C@]1(CO)CC[C@@H](C(=C)C)[C@H](c2ccc(CN3CCOCC3)cc2)C1 [B2-24-2] | 710 nM | higher TLR7 activation inhibitory activity than CB-7 | –
C=C[C@]1(CO)CC[C@@H](C(=C)C)[C@H](c2ccc(CN3CC(F)(F)C3)cc2)C1 [B2-24-3] | 1260 nM | higher TLR7 activation inhibitory activity than CB-7 | –
C=C[C@]1(CO)CC[C@@H](C(=C)C)[C@H](c2ccc(CN3CCNCC3)cc2)C1 [B2-24-4•HCl] | 87 nM | – | IC50 ([1]; Example 5, Table 5, method of Example 2, read-out: IC50): 167 nM
C=C[C@]1(CO)CC[C@@H](C(=C)C)[C@H](c2ccc(CN3CCCC3)cc2)C1 [B2-24] | 440 nM | higher TLR7 activation inhibitory activity than CB-7 | Number of peaks detected by HPLC ([2]; Example 3): 4; Drug metabolism mainly by CYPs compared to CB-7 [2]: improved drug metabolism mainly by CYPs compared to CB-7
C=C[C@]1(CO)CC[C@@H](C(=C)C)[C@H](c2ccc(COCCCO)cc2)C1 [B2-26] | 1260 nM | higher TLR7 activation inhibitory activity than CB-7 | –
C=C[C@]1(C(=O)OC)CC[C@@H](C(=C)C)[C@H](c2ccc(O)cc2)C1 [B2-27] | > 100000 nM | – | –
C=CC[C@]1(CO)CC[C@@H](C(=C)C)[C@H](c2ccc(OCCCO)cc2)C1 [B2-28] | 1660 nM | higher TLR7 activation inhibitory activity than CB-7 | –
C=CC[C@]1(CO)CC[C@@H](C(=C)C)[C@H](c2ccc(OCC(C)CO)cc2)C1 (stereo partly shown) [B2-29] | 1740 nM | higher TLR7 activation inhibitory activity than CB-7 | –
C=C(C)[C@@H]1CCC(=O)C[C@H]1c1ccc(OC)cc1 [I-7(Intermediate)] | > 100000 nM | – | –
